In the test the target is T1, human leukocyte elastase (HLE) (Homo sapiens, UniProt P08246).
T1 construct: purchased Elastin Product Company
T1 sequence (P08246 30-267): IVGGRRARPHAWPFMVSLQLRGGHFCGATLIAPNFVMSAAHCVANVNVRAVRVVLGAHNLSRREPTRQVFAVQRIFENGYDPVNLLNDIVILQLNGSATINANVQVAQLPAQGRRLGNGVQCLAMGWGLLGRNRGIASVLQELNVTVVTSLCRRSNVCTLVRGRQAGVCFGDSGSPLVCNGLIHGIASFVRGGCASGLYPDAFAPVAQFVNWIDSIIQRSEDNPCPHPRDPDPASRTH
The experiment in a line: Kinetic parameters for HLE inhibition (fluorogenic substrate assay). To be noted: 37° C., 0.027M pH 7.4 phosphate buffer, substrate N-methoxysuccinyl-alanyl-prolyl-valyl-7-amido-4-methylcoumarin; for Ki: read-out: "Potency" Ki^ss (apparent dissociation constant of the HLE-inhibitor complex at steady state). The test is classed as biochemical. On the procedure:
The compounds of the present invention are characterized by high inhibitory activity on elastases, especially human leukocyte elastase (HLE). […] These efficacy parameters for HLE inhibition, Ki^ss and k5/Ki, are defined in the equation below, representing the interaction of the enzyme (E) with the compounds (I), which is monitored (see Protocol) in the presence of a […] enzyme substrate (S): [formula]
Kinetic parameters of HLE (Elastin Product Company) were determined at 37° C., 0.027M pH 7.4 phosphate buffer, […], 1% MeCN, NaCl (I=0.15), by monitoring the release of 7-amino-4-methylcoumarin (fluorescence detection) from N-methoxysuccinyl-alanyl-prolyl-valyl-7-amido-4-methylcoumarin as the substrate, according to the equations: [formula]
Full details of the Experimental Protocol are reported in M. Alpegiani et al., Eur. J. Med. Chem. 1992, 27, 875-890.

Molecules are shown by their SMILES. Some results are limits rather than exact numbers.

With `CO[C@H]1C(=O)N2C(C(=O)N3CCCC3)=C(CSc3nc(=O)c(=O)[nH]n3C)CS(=O)(=O)[C@H]12` [Reference, reference compound], the “"Efficiency" k5/Ki (rate of formation of the HLE-inhibitor complex)” value was 9,200 M^−1s^−1 and the Ki came out at 100 nM.
The like results for `CO[C@H]1C(=O)N2C(C(=O)N3CCCC3)=C(C)C(Sc3nc(=O)c(O)nn3C)S(=O)(=O)[C@H]12` (stereo partly drawn) [Compound No. 11, (6R,7S)-4-(6-Hydroxy-2-methyl-5-oxo-2,5-dihydro-[1,2,4]triazin-3-yl-sulfanyl)-7-methoxy-3-methyl-5,5-dioxo-2-(pyrrolidine-1-carbonyl)-5-thia-1-aza-bicyclo [4.2.0]oct-2-en-8-one] were, in that order, 27,000 M^−1s^−1 and 20 nM.
For `CO[C@H]1C(=O)N2C(C(=O)N3CCCC3)=C(C)C(OC(=O)c3c(C)cc(C)cc3C)S(=O)(=O)[C@H]12` (stereo partly drawn) [Compound No. 1, 2,4,6-Trimethylbenzoic Acid (6R,7S)-7-methoxy-3-methyl-5,5,8-trioxo-2-(pyrrolidine-1-carbonyl)-5-thia-1-aza-bicyclo[4.2.0] oct-2-en-4-yl Ester], the “"Efficiency" k5/Ki (rate of formation of the HLE-inhibitor complex)” value is listed as 800,000 M^−1s^−1 and the Ki is under 2 nM.
